# According to patent US9567347B2, “Use of small molecule inhibitors targeting the interaction between RAC GTPase and p67(phox)” (CHILDREN'S HOSPITAL MEDICAL CENTER, priority 2012, dated 2017):
# Substitutions are numbered along the chain they refer to.
# Tests used:
# p67R38Q = target: T1, p67R38Q (Homo sapiens, UniProt P19878, R38Q); experiment: microscale thermophoresis binding to p67phox R38Q mutant; conditions: residue critical for Rac1-GTP binding
# T1 construct: using the pET30-HIS p67(1-212) plasmid; His; made in house; host or cells: E. coli BL21(DE3)
# T1 sequence (P19878 1-212 R38Q): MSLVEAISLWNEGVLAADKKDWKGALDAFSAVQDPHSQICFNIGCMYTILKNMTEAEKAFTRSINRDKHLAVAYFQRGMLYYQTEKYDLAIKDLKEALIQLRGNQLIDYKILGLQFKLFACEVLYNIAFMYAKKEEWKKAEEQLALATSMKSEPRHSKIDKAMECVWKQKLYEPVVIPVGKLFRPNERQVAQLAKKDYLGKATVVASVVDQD
# Description: (§1) The p67^phox protein was expressed in BL21(DE3) bacteria (Stratagene) using the pET30-HIS p67(1-212) plasmid. Protein was purified using the QIAexpress Ni-NTA kit (Qiagen) or the GST Bind Resin Chromatography Kit (Novagen) for RacV12 and RacWT proteins. Mutagenesis was carried out using the Quick Change Lightening Site Directed Mutagenesis Kit (Stratagene).
# (§2) Proteins were labeled for microscale thermophoresis using the Monolith NT Protein Labeling Kit Red (Nano Temper Technologies) as recommended by the manufacturer. Binding reactions were carried out using the Monolith NT. 115 (Nano Temper Technologies). Binding data was analyzed using Graphpad Prizm to estimate Kd values. The arbitrary fluorescence value from the thermophoresis plots for the smallest compound titration was subtracted from every other data point (Delta depletion) prior to normalization to a Vmax of 100. In thermophoresis plots where there was no binding, a curve could not be fit and therefore no Vmax could be assigned. In these instances the highest delta depletion value was set to 100 and all data were normalized accordingly.
# (§3) Next, to perform a competition binding, p67^phox protein was first incubated with either 5 μM Phox-I1 or an equal volume of vehicle control for 15 min prior to titration of purified Rac1V12 protein. […]
# p67^phox mutation, R188A = target: T2, p67^phox mutation, R188A (Homo sapiens, UniProt P19878, R188A); experiment: microscale thermophoresis binding to p67phox R188A mutant; conditions: residue outside region critical for Rac1-GTP interaction
# T2 construct: using the pET30-HIS p67(1-212) plasmid; His; made in house; host or cells: E. coli BL21(DE3)
# T2 sequence (P19878 1-212 R188A): T1 sequence (P19878 1-212 R38Q) with Q38R, R188A
# Description: as §1, §2, §3
# [1] = system: primary murine neutrophils; experiment: H2-DCFDA FACS ROS production assay in primary murine neutrophils; format: cell-based, mouse; conditions: 10 μM and 20 μM
# Description: HL-60 cells were propagated in RPMI 1640 medium containing 10% heat inactivated fetal bovine serum, 2 mM L-glutamine, 100 U/mL penicillin/streptomycin at 37° C. in air containing 5% CO2. For differentiation, HL-60 cells were cultured in 1.3% dimethyl sulfoxide (DMSO) as previously described (Servant, G., et al. (1999) Mol Biol Cell 10, 1163-1178, hereby incorporated by reference in its entirety). Primary murine neutrophils were isolated from C57Bl/6 mouse bone marrow according to a published protocol (Filippi et al., (2004) Nat Immunol 5, 744-751, hereby incorporated by reference in its entirety) using a discontinuous Percoll (Pharmacia) gradient and were utilized immediately in experiments. […]
# Cells (5×10^5) were harvested and processed for Annexin V/7AAD staining according to manufacturer's protocol (Becton Dickinson). Flow cytometry data were acquired on a FACS Canto bench-top flow cytometer (Becton Dickinson) and the cell cycle distributions were determined by […] using Flo-Jo software (Bosco et al (2010) Blood 115, 3320-3328, hereby incorporated by reference in its entirety). […] Cells were then stimulated with 10 μM fMLP (Sigma), 1 mM CaCl2, and 1.5 mM MgCl2 for 15 minutes prior to wash and FACS analysis for mean fluorescence intensity. […]
# [2] = system: glucose oxidase-produced ROS; experiment: luminol chemiluminescence assay of glucose oxidase-generated ROS; format: cell-based, human
# Description: Human neutrophils (2×10^5) were stimulated in HBSS supplemented with 0.1% BSA, 1 mM Ca2+, 1 mM Mg2+ and with fMLP (10 μM), PMA (300 nM) or glucose oxidase (200 mU/ml) for 30 min in the presence of 10 μM [8-amino-5-chloro-7-phenylpyrido[3,4-d]pyridazine-1,4(2H,3H)dione] (L012).
# Chemiluminescence was measured using GloMax®-96 Microplate Luminometer (Promega) (Tarpey et al., (2004) Am J Physiol Regul Integr Comp Physiol 286: R431-R444, hereby incorporated by reference in its entirety). The generation of […] by the xanthine/xanthine oxidase was performed in PBS supplemented with xanthine oxidase (0.004 U), HRP (0.005 U·mL^−1) and L012, following the protocol described in Wind et al., (2010) Br J Pharmacol. 161, 885-898, hereby incorporated by reference in its entirety. The reaction was started by the addition of xanthine (0.5 mM).
structure (smiles),measurement,setting,value
COc1ccc2c(c1)C1C=C(c3ccccc3)NN1C(c1cccc([N+](=O)[O-])c1)O2 (stereo not shown) [Phox-I1],binding to p67^phox R38 mutant,p67R38Q,disrupted the binding ability
same,binding to p67^phox R188 mutant,"p67^phox mutation, R188A",retained the binding activity
same,inhibition of fMLP-stimulated ROS production,[1],able to inhibit ROS production nearly as well as DPI at 100 μM concentration
same,effect on glucose oxidase-produced ROS,[2],did not affect
